Read-outs that look alike come from different tables or passages of the source.
B1: fetuin: sialoprotein, highly purified bovine fetuin (protein, UniProt P12763 19-359, looked up)
Alpha-2-HS-glycoprotein: IPLDPVAGYKEPACDDPDTEQAALAAVDYINKHLPRGYKHTLNQIDSVKVWPRRPTGEVYDIEIDTLETTCHVLDPTPLANCSVRQQTQHAVEGDCDIHVLKQDGQFSVLFTKCDSSPDSAEDVRKLCPDCPLLAPLNDSRVVHAVEVALATFNAESNGSYLQLVEISRAQFVPLPVSVSVEFAVAATDCIAKEVVDPTKCNLLAEKQYGFCKGSVIQKALGGEDVRVTCTLFQTQPVIPQPQPDGAEAEAPSAVPDAAGPTPSAAGPPVASVVVGPSVVAVPLPLHRAHYDLRHTFSGVASVESSSGEAFHVGKTPIVGQPSIPGGPVRLCPGRIRYFKI

Legend:
[1] = system: purified LFA (sialic acid specific slug lectin); assay: Inhibition of hemagglutination by purified LFA; type: cell-based, Limax flavus; details: for Inhibition (%) Purified LFA: 0.34 μg purified LFA per assay; for IC50: read-out: Concentration giving 50% inhibition of hemagglutination, affinity purified LFA; for Ability to inhibit hemagglutination by purified slug lectin (in words): some 17 carbohydrates tested, concentrations as high as 10-25 mM
Description: (§1) Hemagglutination Assay: Aliquots of lectin were adjusted to 0.5 ml by addition of tris-saline buffer which contained 0.4 mg/ml gelatin. To this was added 0.5 ml of a solution containing human erythrocytes that had been washed several times with 0.9% NaCl and whose absorbance at 620 nm was ~2. After standing at room temperature for 30 min. the cells were gently pelleted by centrifugation in a Dynac centrifuge. The cells were resuspended by shaking and allowed to stand for 5 min. in order to permit aggregating cells to settle. The absorbance at 620 nm of the upper one-half ml of the erythrocyte suspension was measured and the data were plotted as A620 versus μg or μl of lectin. One unit of activity is defined as the amount of LFA which gave a 50% agglutination. Percent agglutination was calculated as follows: [formula]
(§2) A 0.5 ml aliquot of erythrocytes was added to the lectin plus inhibitor solution and the percent agglutination determined as described above. The percent inhibition of agglutination represents the difference between the percent agglutination with lectin alone and that obtained with lectin plus inhibitor.

[2] = system: AS-40-80 fraction (partially purified LFA); assay: Inhibition of hemagglutination by partially purified LFA (AS-40-80 fraction); type: cell-based, Limax flavus; details: for Inhibition (%) AS-40-80 Fraction: 20 μg protein of AS-40-80 per assay
Description: as §1, §2

slug lectin = assay: Double diffusion of slug lectin in agar gel against sialoproteins; type: binding, Limax flavus

| Molecule | Inhibition (%) Purified LFA ([1]; carbohydrate 25.0 mM) | Inhibition (%) AS-40-80 Fraction ([2]; carbohydrate 25.0 mM) | Inhibition of hemagglutination by the 40-80% ammonium sulfate fraction (in words) [2] | also measured |
| --- | --- | --- | --- | --- |
| OC[C@H]1OC(O)[C@H](O)[C@@H](O)[C@H]1O (single isomer, unassigned) [D (+) Galactose] | 0% | 0% |  |  |
| OC[C@H]1OC(O)[C@@H](O)[C@@H](O)[C@@H]1O (single isomer, unassigned) [D (+) Mannose] | 0% | 0% |  |  |
| OC1OC[C@@H](O)[C@H](O)[C@H]1O (single isomer, unassigned) [D (+) Xylose] | 0% | 0% |  |  |
| OC[C@H]1OC(O)[C@H](O)[C@@H](O)[C@@H]1O (single isomer, unassigned) [D (-) Glucose] | 0% | 0% |  |  |
| O=C(O)[C@H]1OC(O)[C@H](O)[C@@H](O)[C@@H]1O (single isomer, unassigned) [D (-) Glucuronic Acid] | 0% | 0% |  |  |
| N[C@H]1C(O)O[C@H](CO)[C@H](O)[C@@H]1O (stereo partly drawn) [Galactosamine] | 0% | 45% | inhibition of hemagglutination |  |
| N[C@H]1C(O)O[C@H](CO)[C@@H](O)[C@@H]1O (stereo partly drawn) [Glucosamine] | 0% | 19% | inhibition of hemagglutination |  |
| OC[C@H]1O[C@@H](O[C@H]2[C@H](O)[C@@H](O)C(O)O[C@@H]2CO)[C@H](O)[C@@H](O)[C@H]1O (stereo partly drawn) [Lactose] | 0% | 0% |  |  |
| CC(=O)N[C@H]1C(O)O[C@H](CO)[C@H](O)[C@@H]1O (stereo partly drawn) [N--Acetyl-D-Galactosamine] |  |  | inhibition of hemagglutination | Inhibition (%) Purified LFA ([1]; carbohydrate 10.0 mM): 0%; Inhibition (%) AS-40-80 Fraction ([2]; carbohydrate 10.0 mM): 75% |
| CC(=O)N[C@H]1C(O)O[C@H](CO)[C@@H](O)[C@@H]1O (stereo partly drawn) [N--Acetyl-D-Glucosamine] |  |  | inhibition of hemagglutination | Inhibition (%) Purified LFA ([1]; carbohydrate 10.0 mM): 0%; Inhibition (%) AS-40-80 Fraction ([2]; carbohydrate 10.0 mM): 53% |
| CC(=O)N[C@H]1[C@H]([C@H](O)[C@H](O)CO)OC(O)(C(=O)O)C[C@@H]1O (stereo partly drawn) [N--Acetylneuraminic Acid, N-acetylneuraminic acid] |  |  | inhibition of hemagglutination | Inhibition (%) Purified LFA ([1]; carbohydrate .05 mM): 1%; Inhibition (%) Purified LFA ([1]; carbohydrate .10 mM): 28%; Inhibition (%) Purified LFA ([1]; carbohydrate .15 mM): 54%; Inhibition (%) Purified LFA ([1]; carbohydrate .20 mM): 100%; IC50 [1]: 130 µM; Ability to inhibit hemagglutination by purified slug lectin (in words) [1]: effective; Inhibition (%) AS-40-80 Fraction ([2]; carbohydrate .05 mM): 6%; Inhibition (%) AS-40-80 Fraction ([2]; carbohydrate .10 mM): 17%; Inhibition (%) AS-40-80 Fraction ([2]; carbohydrate .15 mM): 27%; Inhibition (%) AS-40-80 Fraction ([2]; carbohydrate .20 mM): 94% |
| O=C(CO)N[C@H]1[C@H]([C@H](O)[C@H](O)CO)OC(O)(C(=O)O)C[C@@H]1O (stereo partly drawn) [N--Glycolyneuraminic Acid, N-glycolylneuraminic acid] |  |  | inhibition of hemagglutination | Inhibition (%) Purified LFA ([1]; carbohydrate 1.0 mM): 85%; Inhibition (%) Purified LFA ([1]; carbohydrate .25 mM): 0%; Inhibition (%) Purified LFA ([1]; carbohydrate .50 mM): 2%; Inhibition (%) Purified LFA ([1]; carbohydrate .75 mM): 14%; IC50 [1]: 900 µM; IC50 ([1]; listed as GlyNeu): 810 µM; Ability to inhibit hemagglutination by purified slug lectin (in words) [1]: effective; Inhibition (%) AS-40-80 Fraction ([2]; carbohydrate 1.0 mM): 88%; Inhibition (%) AS-40-80 Fraction ([2]; carbohydrate .25 mM): 3%; Inhibition (%) AS-40-80 Fraction ([2]; carbohydrate .50 mM): 20%; Inhibition (%) AS-40-80 Fraction ([2]; carbohydrate .75 mM): 56% |
| OC[C@H]1O[C@@](CO)(O[C@H]2O[C@H](CO)[C@@H](O)[C@H](O)[C@H]2O)[C@@H](O)[C@@H]1O [Sucrose] | 0% | 0% |  |  |
| O[C@@H]1[C@@H](O)[C@@H](O)CO[C@H]1O [α (+) Arabinose] | 0% | 0% |  |  |
| C[C@@H]1O[C@@H](O)[C@@H](O)[C@H](O)[C@@H]1O [α-L(-) Fucose] | 0% | 0% |  |  |
| CO[C@H]1O[C@H](CO)[C@@H](O)[C@H](O)[C@H]1O [α-Methyl-D-Glucoside] | 0% | 0% |  |  |
| CO[C@H]1O[C@H](CO)[C@@H](O)[C@H](O)[C@@H]1O [α-Methyl-D-Mannose] | 0% | 0% |  |  |
| B1 |  |  |  | Inhibitory activity on slug lectin hemagglutination after asialylation ([1]; after incubation at 80° for one hour in 0.1N H2SO4): complete loss of inhibitory activity; Precipitin lines in double diffusion against slug lectin after asialylation (slug lectin; asialylated sialoprotein): lost; Precipitin lines in double diffusion against slug lectin (slug lectin; native sialoprotein): yielded precipitin lines |

Reference: patent US4457865A, “Sialic acid specific slug lectin” (Research Corporation, priority 1982, dated 1984)
